System: MCF7R
Test: MDR-reversal activity evaluated against the resistant human breast tumor cell line MCF7-R
Format: functional
Design: concentration or dose not given beside the values

| Structure (SMILES) | Reduction |
| --- | --- |
| CC(=O)O[C@H]1C(=O)[C@]2(C)[C@@H](OC(=O)/C=C/c3ccc(C(=O)c4ccccc4)cc3)C[C@H]3OC[C@@]3(OC(C)=O)[C@H]2[C@H](OC(=O)c2ccccc2)[C@]2(O)C[C@H](OC(C)=O)C(C)=C1C2(C)C | 99.7% |
| CC(=O)O[C@@]12CO[C@@H]1C[C@H](O)[C@@]1(C)C(=O)[C@H](OC(=O)/C=C/c3ccc(C(=O)c4ccccc4)cc3)C3=C(C)[C@@H](O)C[C@@](O)([C@@H](OC(=O)c4ccccc4)[C@H]21)C3(C)C | 95% |
| CC(=O)O[C@H]1C(=O)[C@]2(C)[C@@H](OC(=O)/C=C/c3ccc4ccccc4c3)C[C@H]3OC[C@@]3(OC(C)=O)[C@H]2[C@H](OC(=O)c2ccccc2)[C@]2(O)C[C@H](OC(C)=O)C(C)=C1C2(C)C | 99.3% |
| CC(=O)O[C@H]1C(=O)[C@]2(C)[C@@H](OC(=O)c3ccc4ccccc4c3)C[C@H]3OC[C@@]3(OC(C)=O)[C@H]2[C@H](OC(=O)c2ccccc2)[C@]2(O)C[C@H](O)C(C)=C1C2(C)C | 97.5% |
| CC(=O)O[C@@]12CO[C@@H]1C[C@H](OC(=O)/C=C/c1ccc3ccccc3c1)[C@@]1(C)C(=O)[C@H](OC(=O)/C=C/c3ccc4ccccc4c3)C3=C(C)[C@@H](O)C[C@@](O)([C@@H](OC(=O)c4ccccc4)[C@H]21)C3(C)C | 45% |
| CC(=O)O[C@H]1C(=O)[C@]2(C)[C@@H](OC(=O)/C=C/c3cccc4ccccc34)C[C@H]3OC[C@@]3(OC(C)=O)[C@H]2[C@H](OC(=O)c2ccccc2)[C@]2(O)C[C@H](O)C(C)=C1C2(C)C | 96% |
| CC(=O)O[C@H]1C(=O)[C@]2(C)[C@@H](OC(=O)CCc3cccc4ccccc34)C[C@H]3OC[C@@]3(OC(C)=O)[C@H]2[C@H](OC(=O)c2ccccc2)[C@]2(O)C[C@H](O)C(C)=C1C2(C)C | 96% |
| CC(=O)O[C@H]1C(=O)[C@]2(C)[C@@H](OC(=O)CCC3CCCC4CCCCC43)C[C@H]3OC[C@@]3(OC(C)=O)[C@H]2[C@H](OC(=O)C2CCCCC2)[C@]2(O)C[C@H](O)C(C)=C1C2(C)C (some centres undefined) | 81% |
| CC(=O)O[C@@]12CO[C@@H]1C[C@H](OC(=O)/C=C/c1ccc3ccccc3c1)[C@@]1(C)C(=O)[C@H](OC(=O)CCc3ccc(C(=O)c4ccccc4)cc3)C3=C(C)[C@@H](O)C[C@@](O)([C@@H](OC(=O)c4ccccc4)[C@H]21)C3(C)C | 0% |
| CC(=O)O[C@@]12CO[C@@H]1C[C@H](OC(=O)CCc1ccc(C(=O)c3ccccc3)cc1)[C@@]1(C)C(=O)[C@H](OC(=O)CCc3ccc(C(=O)c4ccccc4)cc3)C3=C(C)[C@@H](O)C[C@@](O)([C@@H](OC(=O)c4ccccc4)[C@H]21)C3(C)C | 99.7% |
| CC(=O)O[C@H]1C(=O)[C@]2(C)[C@@H](OC(=O)CNC(=O)c3ccc4ccccc4c3)C[C@H]3OC[C@@]3(OC(C)=O)[C@H]2[C@H](OC(=O)c2ccccc2)[C@]2(O)C[C@H](O)C(C)=C1C2(C)C | 42% |
| CC(=O)O[C@H]1C(=O)[C@]2(C)[C@@H](OC(=O)/C=C/c3ccc(C(=O)c4ccccc4)cc3)C[C@H]3OC[C@@]3(OC(C)=O)[C@H]2[C@H](OC(=O)c2ccccc2)[C@]2(O)C[C@H](O)C(C)=C1C2(C)C | 99.8% |

System: MDA-MB-435
Test: MDR-reversal activity evaluated against the resistant human breast tumor cell line MDA-435/LCC6-MDR
Format: functional
Design: concentration or dose not given beside the values

| Structure (SMILES) | Reduction |
| --- | --- |
| CC(=O)O[C@H]1C(=O)[C@]2(C)[C@@H](OC(=O)/C=C/c3ccc(C(=O)c4ccccc4)cc3)C[C@H]3OC[C@@]3(OC(C)=O)[C@H]2[C@H](OC(=O)c2ccccc2)[C@]2(O)C[C@H](OC(C)=O)C(C)=C1C2(C)C | 92% |
| CC(=O)O[C@H]1C(=O)[C@]2(C)[C@@H](OC(=O)/C=C/c3cccc4ccccc34)C[C@H]3OC[C@@]3(OC(C)=O)[C@H]2[C@H](OC(=O)c2ccccc2)[C@]2(O)C[C@H](O)C(C)=C1C2(C)C | 50% |
